The text below walks through data of patent US20240408093A1, “HETEROBIFUNCTIONAL COMPOUNDS AND THEIR USE IN TREATING DISEASE” (HALDA THERAPEUTICS OPCO, INC., priority 2022, published 2024).

What is called DC50 is the concentration giving 50% degradation. As a reminder, the GI50 is the concentration that inhibits growth by half. What is called IC50 is the midpoint of a concentration-inhibition curve.

The test system of assay [1] is GSPT1. Put plainly: Payload release assay (DC50 readout), GSPT1 degradation in the presence of recombinant target protein. The class given is cell-based. To be noted: I-series compounds (GSPT1 readout inferred).
Assay [2] has as its system HeLa cells (ATCC CCL-2). Description: Cellular growth inhibition assay, HeLa cells (Example 16). The class given is cell-based. To be noted: Homo sapiens, 72 hours, CellTiter-Glo 2.0. For orientation: In ATP-based viability assays light output follows the ATP content of the culture.
The target of assay [3] is KRAS G12C (Homo sapiens, UniProt P01116, G12C). Put plainly: KRAS G12C nucleotide exchange assay (SOS1-mediated, HTRF). Further details: GST-tagged KRAS G12C (amino acids 2-169). The class given is biochemical. To be noted: 1 hr pre-incubation. The method in brief:
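GST-tagged KRAS G12C (aa 2-169, 30 nM) pre-incubated 1 h at RT with compound (10-point, 3-fold dilution from 10 μM), then SOS1 (aa 564-1049, 20 nM) and GTP-DY-647P1 (0.15 μM) added. Exchange read by HTRF with anti-GST Tb antibody. IC50 from sigmoidal variable-slope fit.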
On the technique in general: TR-FRET usually uses a lanthanide donor and a delayed reading to cut background.

For assay [4], the system named is HEK293 cells (ATCC CRL-1573). Put plainly: Cellular growth inhibition assay, HEK293 cells (Example 16). The class given is cell-based. To be noted: Homo sapiens, 72 hours, CellTiter-Glo 2.0.
Where [5] appears, read: 0 μM recombinant KRAS G12C, read-out: DC50 at 0 μM KRAS G12C.
Setting [6] is: 5 μM recombinant KRAS G12C, read-out: DC50 at 5 μM KRAS G12C.

Read-outs that look alike come from different tables or passages of the source.

Chain of KRAS G12C (P01116 2-169 isoform P01116-2 G12C): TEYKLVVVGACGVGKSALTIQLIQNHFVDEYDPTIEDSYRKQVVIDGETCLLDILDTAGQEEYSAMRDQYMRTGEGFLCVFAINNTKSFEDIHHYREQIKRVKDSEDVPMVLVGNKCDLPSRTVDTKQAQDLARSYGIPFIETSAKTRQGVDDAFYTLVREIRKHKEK

On to `C=C(COc1cc(Cl)cc(NC(=O)NCc2ccc3c(c2F)CN(C2CCC(=O)NC2=O)C3=O)c1)C(=O)N1CCN(c2nc(OC[C@@H]3CCCN3C)nc3c2CCN(c2cccc4cccc(Cl)c24)C3)C[C@@H]1CC#N` (some centres unmarked) [Compound I-116], for which the values for the 50% degradation concentration (DC50) in assay [1] (setting [5]) and in assay [1] (setting [6]) were 250 to 5000 nM and under 250 nM, respectively. Besides, the GI50 in assay [2] was over 10000 nM; in assay [4] it was 1500 to 10000 nM. This compound showed a half-maximal inhibitory concentration (IC50) in assay [3] of under 100 nM.
In the same order, the values of `C=C(COc1ccc(CN2C(=O)CCC(N3Cc4cc(CNC(=O)Nc5ccc(C)c(Cl)c5)ccc4C3=O)C2=O)cc1)C(=O)N1CCN(c2nc(OC[C@H]3CCCN3C)nc3c2CCN(c2cccc4cccc(Cl)c24)C3)C[C@@H]1CC#N` (stereo in doubt) [Compound I-44] are over 10000 nM, 250 to 5000 nM, over 10000 nM, over 10000 nM and 100 to 5000 nM.
In the same order, the values of `C=C(COc1c(Cl)cccc1NC(=O)NCc1ccc2c(c1)CN(C1CCC(=O)NC1=O)C2=O)C(=O)N1CCN(c2nc(OC[C@@H]3CCCN3C)nc3c2CCN(c2cccc4cccc(Cl)c24)C3)C[C@@H]1CC#N` (some centres unmarked) [Compound I-86] are under 250 nM, under 250 nM, 500 to 1500 nM, under 500 nM and under 100 nM.
As for `C=C(COC(=O)c1c(C)csc1NC(=O)NCc1ccc2c(c1)CN(C1CCC(=O)NC1=O)C2=O)C(=O)N1CCN(c2nc(OC[C@@H]3CCCN3C)nc3c2CCN(c2cccc4cccc(Cl)c24)C3)C[C@@H]1CC#N` (stereo partly drawn) [Compound I-72, 2-[(2S)-4-[7-(8-chloro-1-naphthyl)-2-[[(2S)-1-methylpyrrolidin-2-yl]methoxy]-6,8-dihydro-5H-pyrido[3,4-d]pyrimidin-4-yl]-2-(cyanomethyl)piperazine-1-carbonyl]allyl 2-[[2-(2,6-dioxo-3-piperidyl)-1-oxo-isoindolin-5-yl]methylcarbamoylamino]-4-methyl-thiophene-3-carboxylate], the DC50 in assay [1] (setting [5]) is over 10000 nM; in assay [1] (setting [6]) it was 250 to 5000 nM. The GI50 in assay [2] and in assay [4] was 1500 to 10000 nM throughout. This compound also showed an IC50 in assay [3] of under 100 nM.
As for `C=C(COc1cc(NC(=O)NCc2ccc3c(c2)CN(C2CCC(=O)NC2=O)C3=O)cc(C(F)(F)F)c1)C(=O)N1CC2(CC(n3nc(-c4ccc5c(cnn5C)c4)c(-c4c(Cl)c(C)cc5[nH]ncc45)c3C)C2)C1` (centres unmarked) [Compound I-77], the DC50 in assay [1] (setting [5]) and in assay [1] (setting [6]) was under 250 nM in each case. The GI50 is over 10000 nM in assay [2] and 500 to 1500 nM in assay [4]. In assay [3], this compound yielded an IC50 of 100 to 5000 nM.
As for `C=C(COc1cccc(NC(=O)NCc2ccc3c(c2)CN(C2CCC(=O)NC2=O)C3=O)c1)C(=O)N1CCN(c2nc(OC[C@@H]3CCCN3C)nc3c2CCN(c2cccc4cccc(Cl)c24)C3)C[C@@H]1CC#N` (some centres unmarked) [Compound I-49], the DC50 was 250 to 5000 nM in assay [1] (setting [5]) and over 10000 nM in assay [1] (setting [6]). Also, the GI50 in assay [2] and in assay [4] was over 10000 nM throughout. This compound also showed an IC50 in assay [3] of under 100 nM.
For `C=C(COc1cc(NC(=O)NCc2ccc3c(c2)CN(C2CCC(=O)NC2=O)C3=O)cc(OC)c1)C(=O)N1CC2(CC(n3nc(-c4ccc5c(cnn5C)c4)c(-c4c(Cl)c(C)cc5[nH]ncc45)c3C)C2)C1` (centres unmarked) [Compound I-67], the half-maximal degradation concentration (DC50) in assay [1] (setting [5]) and in assay [1] (setting [6]) was 250 to 5000 nM each time. The GI50 in assay [2] and in assay [4] was over 10000 nM throughout. This compound also yielded an IC50 in assay [3] of 100 to 5000 nM.
With `C=C(COc1ccc(Cl)cc1NC(=O)NCc1ccc2c(c1)CN(C1CCC(=O)NC1=O)C2=O)C(=O)N1CCN(c2nc(OC[C@@H]3CCCN3C)nc3c2CCN(c2cccc4cccc(Cl)c24)C3)C[C@@H]1CC#N` (some centres unmarked) [Compound I-52], the DC50 in assay [1] (setting [5]) is 250 to 5000 nM; in assay [1] (setting [6]) it was under 250 nM. Also, the GI50 in assay [2] fell in the range of 1500 to 10000 nM; in assay [4], 500 to 1500 nM. This compound also displayed an IC50 in assay [3] of under 100 nM.
In the same order, the values of `C=C(COc1cc(NC(=O)NCc2ccc3c(c2)CN(C2CCC(=O)NC2=O)C3=O)cc(C(F)(F)F)c1)C(=O)N1CCN(c2nc(OC[C@@H]3CCCN3C)nc3c2CCN(c2cccc4cccc(Cl)c24)C3)C[C@@H]1CC#N` (some centres unmarked) [Compound I-48] are 250 to 5000 nM, 250 to 5000 nM, over 10000 nM, 1500 to 10000 nM and under 100 nM.
In the same order, the values of `C=C(COc1cc(Cl)cc(NC(=O)NCc2cc3c(cc2F)C(=O)N(C2CCC(=O)NC2=O)C3)c1)C(=O)N1CCN(c2nc(OC[C@@H]3CCCN3C)nc3c2CCN(c2cccc4cccc(Cl)c24)C3)C[C@@H]1CC#N` (some centres unmarked) [Compound I-64] are 250 to 5000 nM, under 250 nM, over 10000 nM, 500 to 1500 nM and under 100 nM.
Consider `C=C(COc1cc(NC(=O)NCc2ccc3c(c2)CN(C2CCC(=O)NC2=O)C3=O)ccc1OC)C(=O)N1CCN(c2nc(OC[C@@H]3CCCN3C)nc3c2CCN(c2cccc4cccc(Cl)c24)C3)C[C@@H]1CC#N` (some centres unmarked) [Compound I-89], for which the figures for the DC50 in assay [1] (setting [5]) and in assay [1] (setting [6]) were 250 to 5000 nM and over 10000 nM, respectively. Also, the GI50 in assay [2] and in assay [4] was over 10000 nM in each case. This compound also displayed an IC50 in assay [3] of under 100 nM.
Consider `C=C(COc1c(CNC(=O)Nc2ccc(C)c(Cl)c2)ccc2c1CN(C1CCC(=O)NC1=O)C2=O)C(=O)N1CCN(c2nc(OC[C@@H]3CCCN3C)nc3c2CCN(c2cccc4cccc(Cl)c24)C3)C[C@@H]1CC#N` (some centres unmarked) [Compound I-90], for which the DC50 in assay [1] (setting [5]) and in assay [1] (setting [6]) was under 250 nM throughout. In addition, the GI50 in assay [2] was over 10000 nM; in assay [4] it was under 500 nM. Also, the IC50 in assay [3] was under 100 nM.
For `C=C(COc1cc(F)c(F)cc1NC(=O)NCc1ccc2c(c1)CN(C1CCC(=O)NC1=O)C2=O)C(=O)N1CCN(c2nc(OC[C@@H]3CCCN3C)nc3c2CCN(c2cccc4cccc(Cl)c24)C3)C[C@@H]1CC#N` (some centres unmarked) [Compound I-62], the DC50 in assay [1] (setting [5]) was 250 to 5000 nM; in assay [1] (setting [6]), under 250 nM. Besides, the GI50 in assay [2] and in assay [4] was over 10000 nM each time. Moreover, in assay [3], the IC50 was under 100 nM.
In the case of `C=C(COc1cc(NC(=O)NCc2ccc3c(c2F)CN(C2CCC(=O)NC2=O)C3=O)cc(C(F)(F)F)c1)C(=O)N1CC2(CC(n3nc(-c4ccc5c(cnn5C)c4)c(-c4c(Cl)c(C)cc5[nH]ncc45)c3C)C2)C1` (centres unmarked) [Compound I-68], the DC50 in assay [1] (setting [5]) and in assay [1] (setting [6]) was over 10000 nM each time. The GI50 in assay [2] is over 10000 nM; in assay [4] it was under 500 nM. Also, the IC50 in assay [3] is 100 to 5000 nM.
Consider `C=C(COc1cc(NC(=O)NCc2ccc3c(c2)CN(C2CCC(=O)NC2=O)C3=O)cc(OC)c1)C(=O)N1CCN(c2nc(OC[C@@H]3CCCN3C)nc3c2CCN(c2cccc4cccc(Cl)c24)C3)C[C@@H]1CC#N` (some centres unmarked) [Compound I-50], for which the DC50 in assay [1] (setting [5]) and in assay [1] (setting [6]) was 250 to 5000 nM throughout. The GI50 in assay [2] and in assay [4] was over 10000 nM in each case. The same compound had a half-maximal inhibitory concentration (IC50) in assay [3] of under 100 nM.
In the case of `C=C(COc1ccc(Cl)cc1NC(=O)NCc1ccc2c(c1)CN(C1CCC(=O)NC1=O)C2=O)C(=O)N1CC2(CC(n3nc(-c4ccc5c(cnn5C)c4)c(-c4c(Cl)c(C)cc5[nH]ncc45)c3C)C2)C1` (centres unmarked) [Compound I-76], the 50% degradation concentration (DC50) in assay [1] (setting [5]) and in assay [1] (setting [6]) was under 250 nM each time. The 50% growth inhibitory concentration (GI50) in assay [2] is 500 to 1500 nM; in assay [4], under 500 nM. Moreover, the IC50 in assay [3] was in the range of 100 to 5000 nM.
